Measured values: article PMC3869945, “Synthetic 1,4-Pyran Naphthoquinones Are Potent Inhibitors of Dengue Virus Replication” (PLoS ONE, 2013)

Columns and labels:
[1] = target: T1, DENV-2 NS3 (full-length, NS3FL) ATPase activity (Dengue virus type 2, UniProt P14340); test: Colorimetric NTPase (ATPase) assay with purified full-length NS3; type: biochemical; conditions: for NS3 ATPase inhibition, statistical difference from control (unpaired t-test, p < 0.05): screening in duplicate; for IC50: compound ≤ 100 μM
T1 construct: The fragment corresponding to amino acids 1 to 619 of NS3FL was amplified; 10xHis (N, cleaved yes); ubiquitin (N, cleaved yes); made in house; host or cells: E. coli Rosetta (λDE3)
T1 sequence (P14340 1476-2093): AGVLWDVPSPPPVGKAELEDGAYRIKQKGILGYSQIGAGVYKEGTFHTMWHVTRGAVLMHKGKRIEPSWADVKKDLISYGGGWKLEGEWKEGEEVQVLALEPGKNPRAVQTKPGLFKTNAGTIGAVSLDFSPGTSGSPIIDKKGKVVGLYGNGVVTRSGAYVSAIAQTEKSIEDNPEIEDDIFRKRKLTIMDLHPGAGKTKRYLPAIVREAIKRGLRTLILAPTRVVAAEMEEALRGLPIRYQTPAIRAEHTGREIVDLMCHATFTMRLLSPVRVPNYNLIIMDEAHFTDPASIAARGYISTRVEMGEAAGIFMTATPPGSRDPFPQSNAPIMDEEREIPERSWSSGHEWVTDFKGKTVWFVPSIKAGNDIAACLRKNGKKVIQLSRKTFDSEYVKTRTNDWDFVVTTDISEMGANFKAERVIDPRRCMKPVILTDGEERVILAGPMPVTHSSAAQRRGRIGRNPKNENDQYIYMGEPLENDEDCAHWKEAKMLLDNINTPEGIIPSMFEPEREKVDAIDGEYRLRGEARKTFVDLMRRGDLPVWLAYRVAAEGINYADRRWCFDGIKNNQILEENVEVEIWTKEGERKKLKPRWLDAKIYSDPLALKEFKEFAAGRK
Procedure: The ATPase activity of NS3 was determined by measuring the extension of hydrolysis of NTP to NDP and Pi. The amount of free inorganic phosphate released was calculated by the hydrolysis of ATP using a standard curve with known Pi concentrations, and the reaction was measured at 660 nm using SpectraMax M5 spectrophotometer (Molecular Devices). Compounds were diluted from 20 mM or 40 mM stock solution prepared in 100% DMSO. These compounds were diluted to a final concentration of 10% DMSO in the assay buffer. The compound screening assay was performed in 96-well plate, and in each well reaction containing 600 nM NS3FL, 40 mM Tris-HCl (pH 7.5), 5 mM MgCl2, 5 mM DTT, 0.1M KCl were pre-incubated with 50µM of compounds (or varying concentrations of the compound) for 10 min at 30 °C. The kinetic activity was initiated by the addition of 1 mM of ATP substrate and incubation for 10 min at 30°C. Reactions were stopped with addition of 20 μL 50% TCA, followed by 80 μL of ammonium molibidate solution and 40 μL of reducing agent. Absorbance was read and data were processed on Sigma Plot Version 10.0. The initial reaction velocities (Vi) of product formation were determined from progress curves using the linear regression method and data converted to residual activity and/or calculate IC50% assuming Michelis-Mentem kinetics. The experiments were carried out in duplicate and the statistical difference between the inhibition reaction in the presence of each compound and the control were evaluated by unpaired t-test analysis.
Once the ATPase activity was confirmed after purification process, we used the colorimetric assay developed by Fiske and Subbarow for the screening of compounds, which was performed using 600 nM of NS3FL in reactions containing 40 mM Tris-HCl (pH 7.5), 5 mM DTT, 100 mM KCl, 5 mM MgCl2, and 1 mM ATP and 50 µM of the pyran naphthoquinones 8, 9 and 10. […] The percentage of NS3FL ATPase activity inhibition varied from 15 to 50% of the untreated control.

Vero cells = test: Cytotoxicity assay, neutral red staining (confirmed with CellTiter Blue); type: cell-based, African Green Monkey; conditions: for Viability of uninfected host cell cultures: up to 100 µM, 72 h, neutral red
Procedure: Cell toxicity of all compounds used in this work was tested in Vero and HepG2 cells by Neutral Red dye exclusion assay. Briefly, cells were cultured with varying concentrations of each compound and incubated for 72 hours at 37°C. After this period, the cells were incubated with 0.05% neutral red solution for 3 hours, washed with 1X PBS and fixed with 20% paraformaldehyde for 5 min. Cells were washed again and the incorporated dye was extracted with a 50% methanol and 1% acetic acid solution for 20 min. Plates were read at 490nm in a ELISA reader. Results obtained with the neutral red dye exclusion assay were confirmed using the CellTiter Blue Cell Viability Kit (Promega, Madison - USA) according to manufacturer’s instructions.
The compounds were initially screened regarding their toxicity level after culturing Vero and HepG2 cells with the effective concentration of each compound. After 72h, cellular viability was analyzed by neutral red staining and confirmed by the conversion of redox resazurin into fluorescent resorufin.

DENV-2 [2] = test: Virus replication inhibition assay in Vero cells, cell-free viral RNA by qPCR; type: cell-based; conditions: for % of Inhibition of DENV-2 Replication (qPCR): DENV-2 infected Vero cells, m.o.i 0.1, 72 h, highest non-toxic concentration (μM, in parentheses after label): 8d 25, 9b and 9c 100, 10a and 10b 12.5, Ribavirin 200; for Inhibition of DENV-2 replication (in words): highest non-toxic concentration; for IC50: qPCR, 100 to 0.4 μM dose response, Hill regression
Procedure: In order to test the anti-viral effect of the compounds used in this work, monolayers of Vero cells were inoculated with DENV-2 at an m.o.i of 0.1 for 2 hours. After this period, cells were washed with 1X PBS to remove unbound viruses and fresh media was added with the highest non-cytotoxic concentration of the compounds. Infected cells were also cultured with culture medium or 1% DMSO, as negative controls, or with 200μM of Ribavirin® as reference drug for DENV replication inhibition. After 72 h, culture supernatants were collected and viral RNA was extracted using the QIAamp Viral RNA Mini Kit (Qiagen – Hamburg, Germany), according to manufacturer’s instructions. The synthesis of cDNA was performed with random hexamers as primers and the High Capacity cDNA kit (LifeTechnologies – Carlsbad, USA) according to manufacturer’s instructions. The detection and quantification of the cell free viral genomic RNA was performed by qPCR using specific primers and probe hybridizing in the protein E gene region as already described. qPCR conditions were as follow: a reaction mixture consisting of 12.5μL of TaqMan (Invitrogen – Carlsbad, USA), 50 pmol of each primer, 9 pmol of the probe and 7μL of the cDNA reaction to a final volume of 25μL was submitted to 40 cycles of amplification in a ABI PRISM 7000 Detection System (LifeTechnologies – Carlsbad, USA) using 60°C annealing temperature. Amplification results were analyzed using the 7000 SDS software (LifeTechnologies – Carlsbad, USA) and the threshold parameter was manually adjusted.
The efficiency of the qPCR was calculated based on the slope of a Ct versus Template Concentration curve. To generate the calibration curve, a purified stock of DENV-2 containing 10^5 Plaque forming unities/ml was serially diluted and used to RNA extraction followed by cDNA synthesis, which was in turn used as template for the qPCR. A value of -3.30 was achieved, which represents an efficiency close to 100%. Based on this efficiency for the qPCR, the percentage of inhibition of DENV replication was calculated by the ΔΔCT method.
A dose response curve was also performed with the compounds that inhibited DENV replication by at least 30%. For this purpose, DENV-2-infected Vero cells were cultured with the selected compounds at concentrations varying from 100 to 0.4 μM and virus replication was measured by qPCR as above. IC50 values were obtained by the Hill’s regression curve using the software Prism 5. Experiments were always performed in triplicates. All results were confirmed in HepG2 cells by qPCR and by TCID50 in Vero cells.

DENV-2 [3] = test: Tissue Culture Infectious Dose (TCID50) confirmation of replication inhibition in Vero cells; type: cell-based; conditions: DENV-2 infected Vero cells
Procedure: Viruses used in this work include a DENV-2 prototype 16681 and a Brazilian isolate (44/02 - from Fundação Oswaldo Cruz – RJ - Brazil). Virus stocks were generated by infecting Vero cells at an 80% confluence with a multiplicity of infection (m.o.i) of 0.1. Infected cells were incubated at 37 °C for 5-7 days and inspected every day until the cytopathic effect was clearly observed. Supernatants were then collected, centrifuged at 1,200 x g for 10 min. to clear cellular debris and stored at -70°C until use. The titter of viral stocks was measured by TCID(50)% using serial dilutions of 10^1 to 10^7 of the viral stocks inoculated into Vero cells. The viral titter was calculated according with Reed and Munch.
A dose response curve was also performed with the compounds that inhibited DENV replication by at least 30%. For this purpose, DENV-2-infected Vero cells were cultured with the selected compounds at concentrations varying from 100 to 0.4 μM and virus replication was measured by qPCR as above. […]
To analyze the impact of the selected compounds on DENV replication, cells were infected and cultured with the highest non-toxic concentration of each compound and virus replication was analyzed by qRT-PCR. […] The differences in the percentage of inhibition when viral replication was measured by qRT-PCR and TCID50 were probably due to the differences in the sensibility of these assays. […]

[4] = target: T2, DENV-2 NS3 protease domain linked to the NS2B cofactor (Dengue virus type 2, UniProt P14340); test: NS3 protease inhibition assay with NS2B cofactor; type: biochemical; conditions: in the presence of the NS2b cofactor, data not shown
T2 construct: the NS3 protease domain linked to the NS2B cofactor was purified; made in house
T2 sequence (P14340 1476-1653): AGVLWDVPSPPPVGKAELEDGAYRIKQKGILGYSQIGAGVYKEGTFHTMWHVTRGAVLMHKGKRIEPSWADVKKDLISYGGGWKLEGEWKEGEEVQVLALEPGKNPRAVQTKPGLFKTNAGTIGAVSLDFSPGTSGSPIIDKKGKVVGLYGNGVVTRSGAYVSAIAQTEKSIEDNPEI
T2 sequence (P14340 1398-1437): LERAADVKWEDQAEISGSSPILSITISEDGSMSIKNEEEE
Procedure: We also evaluated whether the compounds were able to suppress the proteolytic activity of DENV-2 NS3. Several studies have shown that the NS2B cofactor is required by the protease domain to form a proteolytic active domain [47, 48]. Therefore, the NS3 protease domain linked to the NS2B cofactor was purified and the inhibition assay was performed as described by Leung and co-workers.

Q: With Cc1ccc(C2CC(c3ccc([N+](=O)[O-])cc3)C3=C(O2)c2ccccc2C(=O)C3=O)cc1 (stereo not drawn) [8b] as the compound, how does the “NS3 ATPase inhibition, statistical difference from control (unpaired t-test, p < 0.05)” value ([1]; 50 µM compound) read?
A: statistically different

Q: Which results are given for Cc1ccc(C2CC(c3cccs3)C3=C(O2)c2ccccc2C(=O)C3=O)cc1 (stereo not drawn) [8c]?
A: Reduction of the NS3 ATPase activity ([1]; 50 µM compound, 600 nM NS3FL, 1 mM ATP): two-fold reduction; NS3 ATPase inhibition, statistical difference from control (unpaired t-test, p < 0.05) ([1]; 50 µM compound): statistically different; Toxicity to the cell culture (Vero cells; concentration as low as 0.4 μM): highly toxic

Q: Which “% of Inhibition of DENV-2 Replication (qPCR)” value (“% of Inhibition … (qPCR)” for short) (DENV-2 [2]) does the source give for Cc1ccc(C2CC(c3ccccc3)C3=C(O2)c2ccccc2C(=O)C3=O)cc1 (stereo not drawn) [8d] here?
A: 0%

Q: And the “Inhibition of DENV-2 replication (in words)” value (DENV-2 [2]; Vero cells)?
A: did not inhibit DENV-2 replication

Q: Which results are given for Cc1ccc(C2CC(c3ccc([N+](=O)[O-])cc3)C3=C(O2)C(=O)c2ccccc2C3=O)cc1 (stereo not drawn) [9b]?
A: inhibition at 100 µM (DENV-2 [3]; Dengue virus, DENV2, Vero): 99.8%; % of Inhibition of DENV-2 Replication (qPCR) (DENV-2 [2]): 99.0%; IC50 (DENV-2 [2]; Vero cells): 1.64 µM; IC50 ([1]; 600 nM NS3FL, 1 mM ATP): > 100 µM; Viability of uninfected host cell cultures (Vero cells): did not reduce the viability; Effect against the NS3 protease activity [4]: did not observe any effect

Q: Cc1ccc(C2CC(c3ccc([N+](=O)[O-])cc3)C3=C(O2)C(=O)c2ccccc2C3=O)cc1 (stereo not drawn) [9c] was tested. Which “% of Inhibition of DENV-2 Replication (TCID50)” value (DENV-2 [3]; 100 μM) did it give?
A: 99.99%

Q: What about the “% of Inhibition … (qPCR)” value (DENV-2 [2]) of the same compound?
A: 99.6%

Q: And the “IC50 of 9c fold lower than that of compound 9b” value (DENV-2 [2]; DENV-2 replication in Vero cells)?
A: 5.3 fold

Q: What about the “Concentration to inhibit 50% of DENV replication, fold lower than aglycon analogue of teicoplanin” value (DENV-2 [2]; Vero cells) of the same compound?
A: 20 fold

Q: What about the IC50 (DENV-2 [2]; Vero cells) of the same compound?
A: 0.311 µM

Q: And the IC50 ([1]; 600 nM NS3FL, 1 mM ATP)?
A: 80 ± 12 µM

Q: What about the “NS3 ATPase inhibition, statistical difference from control (unpaired t-test, p < 0.05)” value ([1]; 50 µM compound) of the same compound?
A: statistically different

Q: What about the “Viability of uninfected host cell cultures” value (Vero cells) of the same compound?
A: did not reduce the viability

Q: What about the “Effect against the NS3 protease activity” value [4] of the same compound?
A: did not observe any effect

Q: For O=C1C2=C(C(=O)c3ccccc31)C(c1ccccc1)C1=C(O2)C(=O)c2ccccc2C1=O [10a], which “% of Inhibition … (qPCR)” value (DENV-2 [2]) is on record?
A: 0%

Q: And the “NS3 ATPase inhibition, statistical difference from control (unpaired t-test, p < 0.05)” value ([1]; 50 µM compound)?
A: statistically different

Q: O=C1C2=C(C(=O)c3ccccc31)C(c1ccc([N+](=O)[O-])cc1)C1=C(O2)C(=O)c2ccccc2C1=O [10b] was tested. Which “% of Inhibition … (qPCR)” value (DENV-2 [2]) did it give?
A: 0%

Q: What about the “Inhibition of DENV-2 replication (in words)” value (DENV-2 [2]; Vero cells) of the same compound?
A: did not inhibit DENV-2 replication

Q: What about the “NS3 ATPase inhibition, statistical difference from control (unpaired t-test, p < 0.05)” value ([1]; 50 µM compound) of the same compound?
A: statistically different

Q: Which “% of Inhibition … (qPCR)” value (DENV-2 [2]) does the source give for NC(=O)c1ncn([C@@H]2O[C@H](CO)[C@@H](O)[C@H]2O)n1 [Ribavirin, reference compound] here?
A: 78.00%
